Assay results from the METLIN SMRT retention time set (Domingo-Almenara et al. 2019).

Test: gradient 5% acetonitrile 3 min, to 50% in 2 min, to 85% in 15 min, held 3 min, 100 µL/min
Conditions: column: Zorbax Extend-C18 2.1 x 50 mm; eluents: water / acetonitrile, 0.1% formic acid
How it was run: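 Each retention time is based on an adduct peak selected computationally and verified by manual inspection. Measurements used HPLC–quadrupole time-of-flight mass spectrometry in positive and negative ionization mode on mixtures of ~100 pure standards. Chromatography ran on a Zorbax Extend-C18 column (2.1 × 50 mm, 1.8 μm) at 100 μL/min with water and acetonitrile, each containing 0.1% formic acid, and dead and dwell volumes of 40 μL and 900 μL.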

| Structure (SMILES) | RP-LC retention time |
| --- | --- |
| O=C(Nc1cccn2cnnc12)c1ccc(C(F)(F)F)cc1 | 744 s |
| O=C(Cn1c(-c2cccs2)cc2cc(Cl)ccc21)NCCCN1CCOCC1 | 726 s |
| CCS(=O)(=O)NCc1ccc2c(c1)CCN2C(=O)c1ccccc1 | 657 s |
| CNC(=O)c1cc(-c2ccccc2Cl)n[nH]1 | 668 s |
| CNC(=O)c1c(NC(=O)COc2ccc(Cl)cc2)sc2c1CCC2 | 1100 s |
| CCc1ccc(CNC(=O)Cc2nnc(-c3ccccn3)o2)cc1 | 743 s |
| CCc1cc(C(=O)Nc2ccc(OC)cc2)nc2ccnn12 | 917 s |
| COc1ccc(NC(=O)N2CCCC(C)(C(=O)NCc3ccccc3C)C2)c(OC)c1 (centres undefined) | 866 s |
| CN1CCN(C(=O)c2csc(N3CCN(c4cccc(Cl)c4)CC3)n2)CC1 | 690 s |
| COc1ccc(S(=O)(=O)N2CCc3c(c(-c4nnc(-c5ccccc5)o4)nn3C)C2)cc1Cl | 990 s |
| N#Cc1cccc(-c2cn3c(n2)N(C(=O)C2CCCO2)CCC3)c1 (centres undefined) | 703 s |
| COc1ccc(OC)c(CNC(=O)c2ccc3c(c2)N(C)C(=O)c2ccccc2O3)c1 | 852 s |
| O=S(=O)(NC1(c2nc(-c3ccsc3)no2)CCCCC1)c1ccc2c(c1)OCCO2 | 954 s |
| CC(C)c1ccc(CNC(=O)Cc2nnc(-c3ccc4ncccc4c3)o2)cc1 | 811 s |
| O=C(NC1(c2nc(-c3cccnc3)no2)CCCCC1)c1cc(C2CC2)[nH]n1 | 700 s |
| CCOc1ccccc1C(=O)Nc1ccc2c(c1)Sc1ncccc1C(=O)N2C | 806 s |
| CCOc1ccc(-c2noc(-c3nc(C)no3)n2)cc1 | 986 s |
| Cc1cc(C)c(S(=O)(=O)N(Cc2ccsc2)Cc2ccccn2)c(C)c1 | 1030 s |
| Cc1cnn(Cc2nc(-c3ccc(NC(=O)COc4ccccc4)cc3)oc2C)c1 | 869 s |
| COc1cccc(C(=O)NC(NC(=O)c2cccc(OC)c2)c2ccc3c(c2)OCO3)c1 | 758 s |
| O=C(NCc1ccco1)Nc1ccc([N+](=O)[O-])cc1 | 852 s |
| Cc1ccc(CNC(=O)c2nc3cccnc3n(C)c2=O)cc1 | 787 s |
| Cc1cc(C(=O)N2CCCCC2)c2c(=O)n(CC(=O)N(C)c3ccccc3)c(=O)n(C)c2n1 | 812 s |
| CN1CC[C@H](c2c(O)cc(O)c3c(=O)cc(-c4ccccc4Cl)oc23)[C@H](O)C1 | 689 s |

| Structure (SMILES) | RP-LC retention time |
| --- | --- |
| O=C(O)c1cccc2c1CCN2C(=O)c1ccc(F)cc1 | 761 s |
| Cn1c(=O)c(C(=O)NCc2ccc(F)cc2Cl)nc2cccnc21 | 824 s |
| O=C(NC1CCCCCC1)C1CCN(S(=O)(=O)c2cc(-c3noc(C4CCC4)n3)cs2)CC1 | 1110 s |
| CCN(Cc1ccccc1)C(=O)CN1C(=O)CCCc2cc(S(=O)(=O)N3CCOCC3)ccc21 | 825 s |
| O=C(CSc1nc(N2CCCCC2)nc2ccccc12)Nc1cccc(Br)c1 | 812 s |
| Cn1nc(C(=O)N2CCC3(CC2)N=C(c2cccc(Br)c2)NO3)c2ccccc21 | 923 s |
| COc1ccccc1C(CNC(=O)c1cc(=O)c2c(C)cc(C)cc2o1)N(C)C (centres undefined) | 645 s |
| C[C@]12CC[C@H](O)CC1=CCC1C2CC[C@]2(C)C(n3cnc4ccccc43)=CCC12 (some centres undefined) | 948 s |
| COc1ccc(C(=O)N2C[C@@H]3C[C@H]2C[C@@H]3NC(=O)c2cccnc2)cc1F | 618 s |
| CCc1ccc(NC(=O)N2CCC(OC3CCN(S(C)(=O)=O)CC3)CC2)cc1 | 770 s |
| CCc1ccccc1NC(=O)CSc1nc2nc(C)cc(C)n2n1 | 732 s |
| CCCNc1cc(N2CCCC(CCC(=O)NCCOC)C2)ncn1 (centres undefined) | 592 s |
| CCc1ccc2c(c1)cc(S(=O)(=O)c1ccccc1)c(=O)n2CC(=O)NC1CCCCC1 | 1030 s |
| CC(C)COC(=O)c1ccc(NC(=O)C2C3CCC(C3)C2C(=O)O)cc1 (centres undefined) | 901 s |
| O=C(Nc1nnc(-c2cccs2)o1)c1ccc([N+](=O)[O-])o1 | 677 s |
| Cc1cc(N2CCN(C(=O)Nc3ccc(F)c(Cl)c3)CC2)nc(N2CCOCC2)n1 | 665 s |
| CCN1C(=O)C2CC3(CCN(C(=O)CC4CCCC4)CC3)CN2C1=O (centres undefined) | 741 s |
| Cc1ccc(F)c(Nc2ncccc2S(N)(=O)=O)c1 | 826 s |
| COc1ccc(-c2nnc(N3CCC(C(=O)NC(C)c4ccc(OC)cc4)CC3)o2)cc1 (centres undefined) | 815 s |
| Cc1ccc(C(=O)N2C[C@@H](F)C[C@H]2C(=O)N2CCCCC2)c(C)c1 | 740 s |
| O=S(=O)(c1ccccc1)N1CC[C@@H]2COCCN(Cc3ccccc3)[C@@H]2C1 | 675 s |
| CC(C)CC(=O)N1CCN(c2nc(CN3CCOCC3)cs2)CC1 | 590 s |
| O=C(NCCc1ccccc1)C(=O)NCCc1cccs1 | 832 s |
| CCn1c(=O)c(N2CCC(C(=O)NCCCN3CCCCC3C)CC2)nc2cccnc21 (centres undefined) | 632 s |

Next, values leading:

| RP-LC retention time | Structure (SMILES) |
| --- | --- |
| 1190 s | CCCn1ccc2oc(C)c(C(=O)NC(C)c3ccc(C)cc3C)c2c1=O (centres undefined) |
| 739 s | CCOC(=O)c1noc2nc(C)nc(NCCCN3CCN(c4cccc(C)c4)C(C)C3)c12 (centres undefined) |
| 853 s | O=C(NC1CC1)c1csc(N2CCCCC2)n1 |
| 630 s | O=C(CCc1conc1-c1ccccc1)N1CCN(C2CCCCC2)CC1 |
| 979 s | O=C(Cn1c(=O)cc(-c2nc(C3CC3)no2)c2ccccc21)NCc1ccc(Cl)cc1 |
| 1280 s | Cc1ccc(Sc2nccnc2N2CCCC(C(=O)Nc3ccc(Br)cc3)C2)cc1 (centres undefined) |
| 792 s | COc1ccccc1CNC(=O)CCc1csc(NC(=O)c2ccc(F)cc2)n1 |
| 592 s | CCc1nnc2nc(N3CCN(C(=O)c4cccs4)CC3)cc(C)n12 |
| 816 s | Cc1ccc(-c2cn3cccnc3n2)cc1NC(=O)c1ccc(C(C)(C)C)cc1 |
| 961 s | COc1ccc(-c2ncc3c(n2)CCN(C(=O)Nc2ccccc2Br)C3)cc1 |
| 796 s | CCCCNC(=O)CCc1c(C)n(CC)c2nc(-c3ccccc3)nn2c1=O |
| 639 s | Cn1cccc1C(=O)NC1CCCN(c2cc(N3CCCC3)ncn2)C1 (centres undefined) |
| 715 s | O=C(c1ccc2c(c1)OCO2)N1CCCN(C(=O)C2CC2)c2ccccc21 |
| 1100 s | Cc1ccc(-c2nnc(Cc3nc(-c4ccccc4C)no3)o2)cc1 |
| 873 s | CC(=O)Nc1ccc2c(c1)CN(C(=O)c1c(F)cccc1F)C(C(=O)N1CCCC1)C2 (centres undefined) |
| 643 s | CCS(=O)(=O)N1CCC(Cc2nncn2Cc2ccccc2)C1 (centres undefined) |
| 710 s | COc1ccccc1Oc1c(C)oc2cc(OCC(=O)N[C@H](C)C(=O)O)ccc2c1=O |
| 704 s | CSc1ccccc1C(=O)NCC1CCN(C(=O)c2ccccc2F)CC1 |
| 708 s | CCCCN1C(=O)C(CC(=O)N2CCOCC2)Sc2ncccc21 (centres undefined) |
| 715 s | CCOC(=O)c1c(C)[nH]c(C(=O)N2CCC(CC(=O)NC(C)CC)CC2)c1C (centres undefined) |
| 598 s | Cc1nnc(NC(=O)c2nc(-c3cnccn3)no2)s1 |

| RP-LC retention time | Structure (SMILES) |
| --- | --- |
| 1170 s | O=C1C2N=NN(Cc3nc(-c4cccc(C(F)(F)F)c4)no3)C2C(=O)N1c1ccc2c(c1)CCC2 (centres undefined) |
| 647 s | O=C(NCCN1CCOCC1)c1nnc(-c2ccc(S(=O)(=O)N3CCCCC3)cc2)o1 |
| 935 s | Cc1cccc(S(=O)(=O)N2CCC(C)(C(=O)NCc3ccccc3)CC2)c1 |
| 634 s | COc1cc(NC(=O)N2CCN(c3cc(C)nc(N4CCCC4)n3)CC2)cc(OC)c1OC |
| 673 s | CN(CCCNC(=O)CCCn1c(=O)c2cccn2c2ccc(F)cc21)Cc1ccccc1 |
| 592 s | Cc1cc(C(=O)NCCN2CCCCCC2)c2c(=O)n(C)c(=O)n(C)c2n1 |
| 700 s | O=C(CN1CCC(c2nc(-c3ccccc3)no2)CC1)NC1CCCCC1 |
| 834 s | Cc1sc2ccn(C)c(=O)c2c1C(=O)NCc1cccc(Br)c1 |
| 956 s | O=C(NC1CCCCCC1)C1CCN(S(=O)(=O)c2cc(C(=O)N3CCCCCC3)cs2)CC1 |
| 857 s | O=C(Nc1nnc(SCc2nnc(-c3ccc4c(c3)OCO4)o2)s1)c1ccccc1 |
| 926 s | CCCc1noc(-c2ccc3nnc(CC(=O)Nc4ccc(C)cc4C)n3c2)n1 |
| 646 s | O=C(Cn1c(=O)c(=O)n(Cc2ccncc2)c2ncccc21)NC1CCCCCCC1 |
| 860 s | c1ccc(-c2csc(Nc3ccccn3)n2)cc1 |
| 688 s | CCOc1cc(=O)n2c(c1C(=O)NCc1ccc(C)o1)CCCCC2 |
| 880 s | COc1cccc(CNC(=O)C2CCCN2S(=O)(=O)c2cc3c(cc2Cl)NC(=O)CO3)c1 (centres undefined) |
| 1160 s | Cc1ccc(N2CC(c3noc(-c4cccc(OC(F)(F)F)c4)n3)CC2=O)cc1 (centres undefined) |
| 578 s | Cn1c(N2CCC(C(=O)N3CCN(c4ccccn4)CC3)CC2)cc(=O)n(C)c1=O |
| 636 s | O=C(NC1CC1)c1n[nH]c2c1CCCC2 |
| 948 s | COc1ccccc1-c1noc(Cn2ncn3nc(-c4cccs4)cc3c2=O)n1 |
| 828 s | Cc1cccc(CNC(=O)Cn2nc(C(=O)N3CCCC3)c3ccccc32)c1 |
